This passage reports inhibition results from publication PMC6257782, “Design, Synthesis, and Biological Evaluation of Benzylamino-Methanone Based Cholesteryl Ester Transfer Protein Inhibitors” (Molecules, 2010).

For the assay, the target named is T1, CETP (from rabbit serum) (Oryctolagus cuniculus, UniProt P22687).
T1 construct: native CETP in whole rabbit serum, not purified; BioVision fluorescent CE transfer kit (introduction describes human CETP, 476 residues, PDB 2OBD, not the assayed protein)
T1 sequence (P22687 2-497): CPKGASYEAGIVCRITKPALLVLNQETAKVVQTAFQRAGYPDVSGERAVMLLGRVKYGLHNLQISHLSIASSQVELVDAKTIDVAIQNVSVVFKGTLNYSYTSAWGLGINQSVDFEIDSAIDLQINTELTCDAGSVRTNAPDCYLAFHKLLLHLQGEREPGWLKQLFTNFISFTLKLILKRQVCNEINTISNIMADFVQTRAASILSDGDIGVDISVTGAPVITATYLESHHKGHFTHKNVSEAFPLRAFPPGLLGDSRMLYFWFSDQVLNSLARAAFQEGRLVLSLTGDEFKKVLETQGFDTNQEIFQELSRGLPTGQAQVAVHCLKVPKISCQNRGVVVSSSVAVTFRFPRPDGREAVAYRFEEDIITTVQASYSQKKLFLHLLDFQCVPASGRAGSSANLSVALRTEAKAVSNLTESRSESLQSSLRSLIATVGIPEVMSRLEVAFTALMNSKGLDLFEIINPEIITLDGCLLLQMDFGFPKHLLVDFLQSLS
Description: fluorescent neutral lipid (CE) transfer assay, BioVision kit. Format: biochemical. The following applies: read-out: In vitro % inhibition of CETP at 10 μM. An excerpt:
fluorescent neutral lipid (CE) transfer assay, BioVision kit on CETP (from rabbit serum)

Broadly, the inhibition is the percentage by which the read-out fell short of the control. On to `COc1ccc(C(=O)c2ccc(NCc3cccc(C(F)(F)F)c3)cc2)c(OC)c1` [compound 29, (2,4-Dimethoxyphenyl)-[4-(3-trifluoromethylbenzylamino)phenyl]-methanone], for which the inhibition at 10 µM worked out at 19.5 ± 0.6%.

For `Cc1ccc(C(=O)c2ccc(NCc3ccc(C(F)(F)F)cc3)cc2)cc1` [compound 22, p-Tolyl-[4-(4-trifluoromethylbenzylamino)phenyl]-methanone], the inhibition at 10 µM is 12.6 ± 2.6%.

For `COc1cccc(CNc2ccc(C(=O)c3ccc(C)cc3)cc2)c1` [compound 19, [4-(3-Methoxybenzylamino)phenyl]-p-tolyl-methanone], the inhibition at 10 µM was found to be 16.4 ± 3%.

As for `Cc1ccc(C(=O)c2ccc(NCc3cccc(C(F)(F)F)c3)cc2)cc1` [compound 21, p-Tolyl-[4-(3-trifluoromethylbenzylamino)phenyl]-methanone], the inhibition at 10 µM worked out at 16.7 ± 0.6%.

`COc1ccc(C(=O)c2ccc(NCc3ccc(C(F)(F)F)cc3)cc2)c(OC)c1` [compound 30, (2,4-Dimethoxyphenyl)-[4-(4-trifluoromethylbenzylamino)phenyl]-methanone]: the inhibition at 10 µM amounted to 19.8 ± 2.9%.
